Consider 19 compounds from patent US5187157A, “Peptide boronic acid inhibitors of trypsin-like proteases” (Du Pont Merck Pharmaceutical Company, priority 1988, dated 1993).

The target in one experiment is T1, Human plasma kallikrein (Homo sapiens, UniProt P03952).
T1 construct: purchased Protogen AG (Switzerland)
Briefly: Inhibition of Human Plasma Kallikrein. Type of experiment: biochemical. Particulars: for Percent Activity: activity remaining 10 to 20 min after initiation. The procedure:
(§1) In the Examples which follow, the hydrolytic activity of each enzyme is measured in both the presence and absence of inhibitor and the percent enzyme activity determined. […] A steady state is reached fairly rapidly and nears completion within 5 min. Activity is evaluated between 10-20 min after the components are mixed to insure that reaction components are at equilibrium. The lowest concentration of inhibitor tested is determined by the estimated concentration of enzyme. […] The maintenance of pseudo-first-order reaction conditions and the sensitivity of the respective assays sets the lowest limit level of inhibitor tested at 10 nM for kallikrein inhibitors and 5 nM for thrombin inhibitors.
Human plasma kallikrein was obtained from Protogen AG (Switzerland). The specific activity as described by the supplier is 15 units per mg. A unit is defined as the quantity of enzyme required to hydrolyze 1 μmole of substrate, H-(D)Pro-Phe-Arg-p-nitroanilide (Kabi S2302), per min at a substrate concentration of 0.50 mM at 25° in 50 mM potassium phosphate buffer, pH 8.0.

For another experiment, the target named is T2, Human thrombin (Homo sapiens, UniProt P00734).
T2 construct: purchased R.Q.P. Laboratories, South Bend, IN Lot HT102
Briefly: Inhibition of Thrombin (Esterase Activity). It is filed as biochemical. The note with it: for Percent Activity: activity remaining 10 to 20 min after initiation. The procedure:
as §1
A stock solution of thrombin was prepared in 0.010M PIPES Buffer, pH 6.0, containing 0.75 M sodium chloride. […] The initial concentration of substrate was 0.10 mM and the concentration of thrombin was 1.0 nM (based on weight).

The test system of the next experiment is Sprague Dawley CD Rats. Briefly: In Vivo Inhibition of Croton Oil Induced Inflammation (ear swelling).
In experiment [1] the test system is normal human plasma. Briefly: Activated partial thromboplastin times (APTT), blood coagulation in vitro. Type of experiment: biochemical. The procedure:
(§2) The effectiveness of inhibitors in reactions in which they compete with natural substrates for target enzymes is measured in vitro in blood coagulation assays. Two different assays are used, the APTT (activated partial thromboplastin times) and PT (prothrombin times) assays. These assays mimic the blood clotting process in vivo. Blood coagulation occurs through either of two pathways, each consisting of a cascades of zymogen activation steps. The pathways are termed the intrinsic and the extrinsic pathways (see L. Lorand, Methods in Enzymology 45: 31-37 (1976). The intrinsic pathway is initiated by negatively charged surfaces in which plasma kallikrein, factor XII and factor […] are activated and then factors IX and X and prothrombin are activated in calcium dependent steps. Thrombin, the last protease in the cascade, hydrolyses fibrinogen to fibrin which results in clot formation. In the APTT assay, plasma components are activated by exposure to negatively charged surfaces and then clotting times are measured after calcium is added to the system. In the extrinsic pathway, tissue thromboplastin activates factor VII which then activates factor X leading to the activation of thrombin. These events are measured in the prothrombin times assay.
The effect of protease inhibitors on blood coagulation in vitro was determined by measuring their effects on two different clinical parameters, the activated partial thromboplastin times (APTT) and prothrombin times (PT). Reagents for each of these assays were supplied by General Diagnostics, Jessup MD. Stock solutions of inhibitors were prepared in […] HEPES buffer, pH 7.5, containing 0.10 M sodium chloride. For the APTT assay, the inhibitor solution (0.100 mL) was incubated with normal human plasma (0.100 mL) and automated APTT reagent (0.100 mL). After incubation for 5.0 min at 37°, calcium chloride (0.100 mL) was added and the clotting times, measured in seconds, was determined on a fibrameter. The effects of the varying concentrations of inhibitor on blood clotting times compared with the clotting times of controls run in the absence of inhibitor, are shown in Table 3.

The subject of experiment [2] is normal human plasma. The experiment is described as follows: Prothrombin times (PT), blood coagulation in vitro. Type of experiment: biochemical. On the procedure: as §2
For PT assays, inhibitor solutions (0.100 mL) were incubated with normal human plasma (0.100 mL) for 2 min at 37°.

Residues, ends and D or L forms follow the SMILES beside them. *: point of attachment. X1 = CC1(C)C2CC3OB(C(CCCNC(=N)N)N*)OC3(C)C1C2; Boc = CC(C)(C)OC(=O)*

T1 sequence (P03952 391-638 limits assumed): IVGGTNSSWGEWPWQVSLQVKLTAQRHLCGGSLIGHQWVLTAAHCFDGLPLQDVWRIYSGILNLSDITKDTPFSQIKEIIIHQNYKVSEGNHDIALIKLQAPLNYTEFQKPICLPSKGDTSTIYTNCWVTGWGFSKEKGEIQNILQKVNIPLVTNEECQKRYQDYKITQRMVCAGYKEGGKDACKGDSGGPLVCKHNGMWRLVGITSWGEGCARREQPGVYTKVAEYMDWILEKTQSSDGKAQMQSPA
T1 sequence (P03952 20-390 partner limits assumed): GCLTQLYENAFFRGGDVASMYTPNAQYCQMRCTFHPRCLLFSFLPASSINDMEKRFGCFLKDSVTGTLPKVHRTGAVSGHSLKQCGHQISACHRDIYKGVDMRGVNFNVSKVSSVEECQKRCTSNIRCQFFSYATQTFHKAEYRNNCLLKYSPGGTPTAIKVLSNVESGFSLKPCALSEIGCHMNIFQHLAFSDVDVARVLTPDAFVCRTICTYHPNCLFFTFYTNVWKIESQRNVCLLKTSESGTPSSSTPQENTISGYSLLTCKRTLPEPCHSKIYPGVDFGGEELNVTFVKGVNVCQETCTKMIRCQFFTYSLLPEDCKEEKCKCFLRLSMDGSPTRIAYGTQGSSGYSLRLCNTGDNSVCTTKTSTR
Experimental for Sprague Dawley CD Rats: Two solutions were prepared, the first consisting of 5% croton oil, a known inflammatory agent, in an acetone carrier (Croton Solution) and the second consisting of 5% croton oil in an acetone carrier to which 10 mg/mL of a compound of the invention was added (Compound Solution). The Croton Solution (10 μL), or alternatively the Compound Solution (10 μL), was applied to the right ear of each animal (Sprague Dawley CD Rats, 130-140 g, supplied by Charles River Labs, Inc., Wilmington, MA). […] "SE" denotes standard error.

As to `CC(NC(=O)OC(C)(C)C)C(=O)NC(Cc1ccccc1)C(=O)NC(CCCCN)B1OC(C)(C)C(C)(C)O1.Cl` (stereo not drawn) [Boc--Ala--Phe--(D,L)boroLys--C6 H12.HCl, Boc-Ala-Phe-(D,L)boroLys-C6 H12.HCl], the “Percent Activity” value at Human plasma kallikrein (inhibitor 1000 nM) came out at 17%; on Human thrombin (inhibitor 10000 nM), 46%.
On to `CC1(C)C2CC3OB(C(CCCNC(=N)N)NC(=O)C(Cc4ccccc4)NC(=O)C4CCCN4C(=O)c4ccccc4)OC3(C)C1C2.O=S(=O)(O)c1ccccc1` (stereo not drawn) [Bz--Pro--Phe--boroArg--C10 H16.BSA, Bz-Pro-Phe-boroArg-C10 H16.benzene sulfonic acid], for which the “Percent Activity” value on Human plasma kallikrein (inhibitor 10 nM) is listed as 15%; on Human thrombin (inhibitor 1000 nM), 24%.
Regarding `CC(=O)NC(Cc1ccccc1)C(=O)N1CCCC1C(=O)NC(CCCNC(=N)N)B1OC2CC3CC(C3(C)C)C2(C)O1.Cl` (stereo not drawn) [Ac--(D)Phe--Pro--boroArg--C10 H16.HCl, Ac-(D)Phe-Pro-boroArg-C10 H16.HCl], the “Percent Activity” value on Human plasma kallikrein (inhibitor 10 nM) is recorded as 56%; at Human thrombin (inhibitor 5 nM) it was 1%. For the same compound, at Human thrombin (estimate from percent inhibition), the “Ki (suggested by inhibitor concentration and percent inhibition)” value is recorded as “in the picomolar range”. This compound also had an inhibits thrombin on Human thrombin (inhibitor 5 nM) of 99%.
As to `CC(C)(C)OC(=O)NC(Cc1ccccc1)C(=O)NC(Cc1ccccc1)C(=O)NC(CCCN)B1OC2CC3CC(C3(C)C)C2(C)O1.O=S(=O)(O)c1ccccc1` (stereo not drawn) [Boc--(D)Phe--Phe--boroOrn--C10 H16.BSA, Boc-(D)Phe-Phe-boroOrn-C10 H16.benzene sulfonic acid], the “Percent Activity” value on Human plasma kallikrein (inhibitor 10000 nM) is 39%.
Take `CC1(C)C2CC3OB(C(CCCNC(=N)N)NC(=O)CNC(=O)C(CCC(=O)O)NC(=O)c4ccccc4)OC3(C)C1C2.O=S(=O)(O)c1ccccc1` (stereo not drawn) [Bz--Glu--Gly--boroArg--C10 H16.BSA, Bz-Glu-Gly-boroArg-C10 H16.benzene sulfonic acid]: the “Percent Activity” value on Human plasma kallikrein (inhibitor 50 nM) is 39%; at Human thrombin (inhibitor 100 nM) it was 46%.
Turning to “Boc-Ala-Phe-(D,L)boroIrg-C6 H12.HBr [Boc--Ala--Phe--(D,L)boroIrg--C6 H12.HBr]”, the “Percent Activity” value at Human plasma kallikrein (inhibitor 10 nM) turned out to be 15%; on Human thrombin (inhibitor 1000 nM), 28%.
For the compound `Cl.NC(N)=NCCC[C@H](NC(=O)[C@H](Cc1ccccc1)NC(=O)[C@@H]1CCCN1C(=O)c1ccccc1)B(O)O` [Bz--Pro--Phe--boroArg--OH.HCl, Bz-Pro-Phe-boroArg-OH.HCl], the “Percent Activity” value is listed as 16% at Human plasma kallikrein (inhibitor 10 nM) and 18% on Human thrombin (inhibitor 1000 nM).
`CCCCOC(=O)CC[C@H](NC(=O)c1ccccc1)C(=O)NCC(=O)NC(CCCNC(=N)N)B1OC2CC3CC(C3(C)C)C2(C)O1.O=S(=O)(O)c1ccccc1` (stereo partly drawn) [Bz--Glu(OBu)--Gly--boroArg--C10 H16.BSA, Bz-Glu(OBu)-Gly-boroArg-C10 H16.benzene sulfonic acid]: the “Percent Activity” value on Human plasma kallikrein (inhibitor 50 nM) turned out to be 11%; at Human thrombin (inhibitor 10 nM) it was 52%.
For `Br.CC(C)(C)OC(=O)NC(Cc1ccccc1)C(=O)NC(Cc1ccccc1)C(=O)NC(CCCSC(=N)N)B1OC2CC3CC(C3(C)C)C2(C)O1` (stereo not drawn) [Compound D, Boc-(D)Phe-Phe-boroIrg-C10 H16.HBr], in the experiment with Sprague Dawley CD Rats (Table 14, dose=100 μg, essentially the same conditions), the “Percent Inhibition” value was found to be 93%. The “Calc. Concentration 2 × APTT” value with normal human plasma [1] (approximate concentration required to increase APTT two fold) is listed as 370 nM. The “Activated Partial Thromboplastin Times” value in the experiment with normal human plasma [1] (inhibitor 50 nM) was 35.8 s; with normal human plasma [1] (inhibitor 125 nM), 45.2 s; with normal human plasma [1] (inhibitor 200 nM), 46.2 s; in the experiment with normal human plasma [1] (inhibitor 275 nM), 60.7 s; in the experiment with normal human plasma [1] (inhibitor 350 nM), 75.7 s; in the experiment on normal human plasma [1] (inhibitor 550 nM), 94.8 s. The “Percent Activity” value at Human plasma kallikrein (inhibitor 10 nM) was determined as 2%; on Human thrombin (inhibitor 5 nM), 48%. The “Calc. Concentration 2 × XPT” value with normal human plasma [2] (approximate concentration required to increase PT two fold) was 1200 nM. Also, the “Prothrombin Times” value with normal human plasma [2] (inhibitor 500 nM) stood at 15.7 s; in the experiment with normal human plasma [2] (inhibitor 750 nM) it was 17.2 s; in the experiment with normal human plasma [2] (inhibitor 1000 nM), 19.9 s; with normal human plasma [2] (inhibitor 2000 nM) it was 23.4 s; in the experiment on normal human plasma [2] (inhibitor 4000 nM), 49.2 s.
Consider `COc1ccc2c(c1)c(CC(=O)O)c(C)n2C(=O)c1ccc(Cl)cc1` [Indomethacin, indomethacin, reference compound], for which the “Mean Right ear Wt.” value in the experiment with Sprague Dawley CD Rats (100 μg/ear with 5% croton oil, topical, 1 h) amounted to 20.6 mg. Further, the “Mean Swelling (mg ± SE)” value with Sprague Dawley CD Rats (100 μg/ear with 5% croton oil, topical, 1 h, right minus left ear weight) worked out at 5.0 ± 2.8 mg. For the same compound, the “Percent Inhibition” value in the experiment on Sprague Dawley CD Rats (Table 13, 100 μg/ear with 5% croton oil, topical, 1 h) is 55%.
Regarding “Ac-Ala-Lys(Boc)-boroArg-C10 H16.benzene sulfonic acid [Ac--Ala--Lys(Boc)--boroArg--C10 H16.BSA]”, the “Percent Activity” value is given as 34% at Human plasma kallikrein (inhibitor 10 nM) and 18% on Human thrombin (inhibitor 100 nM).
As to `Br.CC(=O)NC(C)C(=O)NC(CCCCNC(=O)OC(C)(C)C)C(=O)NC(CCCSC(=N)N)B1OC2CC3CC(C3(C)C)C2(C)O1` (stereo not drawn) [Ac--Ala--Lys(Boc)--boroIrg--C10 H16.HBr, Ac-Ala-Lys(Boc)-boroIrg-C10 H16.HBr], the “Percent Activity” value at Human plasma kallikrein (inhibitor 50 nM) amounted to 1.4%; at Human thrombin (inhibitor 100 nM), 55%.
In the case of “Bz-Pro-Phe-boroArg-F.hydrogen chloride [Bz--Pro--Phe--boroArg--F]”, the “Percent Activity” value on Human plasma kallikrein (inhibitor 10 nM) and on Human thrombin (inhibitor 1000 nM) was 18% throughout.
As for `CC1(C)C2CC3OB(C(CCCNC(=N)N)NC(=O)C(Cc4ccccc4)NC(=O)C(N)Cc4ccccc4)OC3(C)C1C2.Cl.Cl` (stereo not drawn) [H--(D)Phe--Phe--boroArg--C10 H16.2HCl, H-(D)Phe-Phe-boroArg-C10 H16.2HCl], at Human plasma kallikrein (inhibitor 10 nM), the inhibits kallikrein entry is given as “greater than 95%” and the “Percent Activity” value was found to be 2.6%. Further, the “Percent Activity” value at Human thrombin (inhibitor 10 nM) came out at 10%.
In the case of `CC(C)(C)OC(=O)NC(Cc1ccccc1)C(=O)N1CCCC1C(=O)NC(CCCN)B1OC2CC3CC(C3(C)C)C2(C)O1.O=S(=O)(O)c1ccccc1` (stereo not drawn) [Boc--(D)Phe--Pro--boroOrn--C10 H16.BSA, Boc-(D)Phe-Pro-NH-CH[(CH2)3 NH2 ]BO2 -C10 H16.benzene sulfonic acid], the entries for the “Percent Activity” value at Human plasma kallikrein (inhibitor 10000 nM) and at Human thrombin (inhibitor 100 nM) were 100% and 18%, respectively.
As to `CC(C)CC(NC(=O)CNC(=O)C(CC(C)C)NC(=O)OC(C)(C)C)C(=O)NC(C)C(=O)NC(CCCNC(=N)N)B1OC2CC3CC(C3(C)C)C2(C)O1.O=S(=O)(O)c1ccccc1` (stereo not drawn) [Boc-Leu-Gly-Leu-Ala-boroArg-C10 H16.benzene sulfonic acid] (Boc-LGLA-X1; configuration not given here), the “Percent Activity” value came out at 30% on Human plasma kallikrein (inhibitor 10 nM) and 38% on Human thrombin (inhibitor 10 nM).
As for `Br.CC1(C)C2CC3OB(C(CCCSC(=N)N)NC(=O)C(Cc4ccccc4)NC(=O)C4CCCN4C(=O)c4ccccc4)OC3(C)C1C2` (stereo not drawn) [Bz--Pro--Phe--boroIrg--C10 H16.HBr, Bz-Pro-Phe-boroIrg-C10 H16.HBr], the “Percent Activity” value on Human thrombin (inhibitor 1000 nM) was determined as 21%.
On to `CC(=O)NC(C)C(=O)NC(CCCCN)C(=O)NC(CCCNC(=N)N)B1OC2CC3CC(C3(C)C)C2(C)O1.Cl.Cl` (stereo not drawn) [Ac--Ala--Lys--boroArg--C10 H16.2HCl, Ac-Ala-Lys-boroArg-C10 H16.2HCl], for which the “Percent Activity” value on Human plasma kallikrein (inhibitor 50 nM) is given as 39%; on Human thrombin (inhibitor 1000 nM) it was 45%.
For the compound `Br.CC(NC(=O)OC(C)(C)C)C(=O)NC(Cc1ccccc1)C(=O)NC(CCCCSC(=N)N)B1OC(C)(C)C(C)(C)O1` (stereo not drawn) [Boc-Ala-Phe-(D,L)boroHomoIrg-C6 H12.HBr], the “Percent Activity” value on Human plasma kallikrein (inhibitor 100 nM) was 38%; at Human thrombin (inhibitor 10000 nM), 32%.
